We go through two molecules from US20240197596A1, “COMPOUNDS USEFUL AS HAIR DYES” (National University of Singapore, priority 2021, published 2024).

The test system of data set [1] is THP-1 cells. Nature of the data set: MTT assay on THP-1 cells (CV75). The following applies: THP-1 cells, 24 h. The format is cell-based, human. In short, it runs like this: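 THP-1 cells seeded at 1×10^5 cells/well, grown 24 h at 37 °C/5% CO2, then exposed to a dilution series for 24 h (6 replicates). MTT added for 3 h, formazan dissolved in DMSO, absorbance read at 570 nm; CV75 derived from % viability.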
In general terms: Tetrazolium dyes change colour on reduction, which living cells bring about.

A further data set is described as follows: Hair nuance test. More on the design: key to L* / a* / b*: CIELAB L*, a*, b* coordinates; key to ΔE (total colour difference to natural hair): ΔE = √((L*−L0)²+(a*−a0)²+(b*−b0)²) vs untreated hair. The note with it: for eventual colour of bleached hair, Type A: Type A (Non-oxidative) formulation; for eventual colour of bleached hair, Type B: Type B (Oxidative, H2O2) formulation; for eventual colour of bleached hair, Type C: Type C (Oxidative with coupler resorcinol) formulation. On the procedure:
35 g of bleaching powder was mixed with 50 mL of developer then applied onto undyed black hair (wrapped in aluminium foil to enhance the bleaching process) and left on for 45 min. The hair was then rinsed with deionized water and shampoo and left to dry. This process was repeated twice.
Hair dye formulations were prepared from N1-N13 according to methods reported (New Journal of Chemistry. 2019; 43(41):16188-99), and with the compositions stated in Table 11 Bleached hair samples were immersed into the respective formulations for 20 min, then air dried for 20 min. Then they were shampooed twice and treated with conditioner for 5 min.
SkinColorCatch (Delfin Technologies Ltd, Kuopio, Finland) was used to measure CIELAB tristimulus L*, a* and b* values of the dyed hair samples and baseline L0, a0, b0 values from untreated hair. The difference in colour tone (ΔH) and the total colour difference (ΔE) were then derived from the values obtained with the equations below:
ΔH=√{square root over ((a*−a0)^2+(b*−b0)^2)}
ΔE=√{square root over ((L*−L0)^2+(a*−a0)^2+(b*−b0)^2)}

Data set [2] concerns THP-1 cells. Nature of the data set: h-CLAT assay on THP-1 cells: markers against OECD cut-off, prediction, cell viability. It is filed as cell-based, human. The following applies: 8 doses based on CV75, 24 h. The method in brief:
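THP-1 cells (1×10^6/mL) exposed 24 h to 8 doses spaced 1.2-fold around CV75; DNCB and SLS as controls. CD86/CD54 geometric MFI by flow cytometry with PI viability, expressed as % RFI (not calculated below 50% viability). Sensitizer if CD86 >150% or CD54 >200% RFI in two of three runs.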

In a further data set the test system is HaCaT cells. Nature of the data set: MTT assay on HaCaT cells. The note with it: Homo sapiens; HaCaT cells, 72 h, MTT; read-out: IC50. It is filed as cell-based. The protocol:
HaCaT (human, adult, low calcium, high temperature, skin keratinocyte) cell suspension was adjusted to 5×10^3 cells per well and seeded in 96-well plates, then incubated at 37° C. with 5% CO2. After 24 h, 10 mM stock solutions of N1-N13 in autoclaved milli-Q water were prepared and serially diluted concentrations were added to the wells. Each concentration was performed in 6-replicates, and seeded wells with only media and no compound were used as controls while wells with only media were used as blanks. The plate was incubated for 72 h, after which 100 μL of MTT reagent was added and the plate was further incubated for 3 h before adding 100 μL of DMSO. Subsequently, the plate was shaken for 20 min, and then absorbance at 570 nm was determined using a Bio-Tek plate reader.

Where [3] appears, read: Type C (Oxidative with coupler resorcinol).

The structures appear in SMILES notation. “Also recorded” adds a separate entry of the source.

One may read the IC50 as the concentration at which inhibition is half-maximal. For `COCCOc1cc(N)ccc1N` [Compound N7, 2-(2-methoxyethoxy)benzene-1,4-diamine], in the data set with THP-1 cells [1], the “CV75 (concentration affording 75% cell viability), 1 × CV75” value turned out to be 44.6 µg/mL. Further, in the data set “Hair nuance test” (Type A (Non-oxidative)), the “L*” value came to 22, the “a*” value came to 2.7, the “b*” value amounted to 4.7 and the “ΔE (total colour difference to natural hair)” value is 13.8. In addition, in “Hair nuance test” (Type A (Non-oxidative)), the “ΔH (difference in colour tone)” value is 4.6. In the data set “Hair nuance test”, the “eventual colour of bleached hair, Type A” value was “dark brown colour shade; also recorded: Dark hazelnut”; the “eventual colour of bleached hair, Type B” value is listed as “Walnut brown”; the “eventual colour of bleached hair, Type C” value is on record as “vibrant blue colours; also recorded: Navy blue”. For the same molecule, in “Hair nuance test” (Type B (Oxidative)), the “L*” value is reported as 19, the “a*” value was determined as 4.7, the “b*” value came to 3 and the “ΔE (total colour difference to natural hair)” value turned out to be 11.2. In “Hair nuance test” (Type B (Oxidative)), the “ΔH (difference in colour tone)” value came to 5.1. For the same molecule, in the data set “Hair nuance test” (setting [3]), the “L*” value is listed as 12.3, the “a*” value is −0.7, the “b*” value was −4 and the “ΔE (total colour difference to natural hair)” value was found to be 6.0. Moreover, in “Hair nuance test” (setting [3]), the “ΔH (difference in colour tone)” value came out at 5.0. The “CD54 and CD86 marker expression against OECD cut-off” value in the data set with THP-1 cells [2] is “failed to induce marker expression above the recommended % RFI cut-off”. Further, the IC50 in the data set on HaCaT cells turned out to be 33.5 µM.
On to `Nc1ccc(N)c(OCOCO)c1` [Compound N8, ((2,5-diaminophenoxy)methoxy)methanol], for which the “CV75 (concentration affording 75% cell viability), 1 × CV75” value in the data set with THP-1 cells [1] amounted to 141 µg/mL. In the data set “Hair nuance test” (Type A (Non-oxidative)), the “L*” value turned out to be 12, the “a*” value is on record as −1, the “b*” value is given as 6 and the “ΔE (total colour difference to natural hair)” value was found to be 5.91. The “ΔH (difference in colour tone)” value in “Hair nuance test” (Type A (Non-oxidative)) is 2.43. Further, in “Hair nuance test”, the “eventual colour of bleached hair, Type A” value is recorded as “Black”; the “eventual colour of bleached hair, Type B” value was “black colour”; the “eventual colour of bleached hair, Type C” value was “Brown”. Also, in “Hair nuance test” (Type B (Oxidative)), the “L*” value is recorded as 9, the “a*” value stood at 0, the “b*” value is given as −1 and the “ΔE (total colour difference to natural hair)” value turned out to be 2. In addition, the “ΔH (difference in colour tone)” value in “Hair nuance test” (Type B (Oxidative)) came out at 1.41. Moreover, in “Hair nuance test” (setting [3]), the “L*” value is reported as 10, the “a*” value turned out to be 0, the “b*” value worked out at 3 and the “ΔE (total colour difference to natural hair)” value came to 2.23. The “ΔH (difference in colour tone)” value in “Hair nuance test” (setting [3]) is 1.49. In addition, in the data set with THP-1 cells [2], the “CD54 and CD86 marker expression against OECD cut-off” value is reported as “failed to induce marker expression above the recommended % RFI cut-off”. The IC50 in the data set with HaCaT cells amounted to 219 µM.
